Experimental data reported in article PMC8509773, “3-Pyridinylidene Derivatives of Chemically Modified Lupane and Ursane Triterpenes as Promising Anticancer Agents by Targeting Apoptosis” (International Journal of Molecular Sciences, 2021).
Marks after values point to notes of the source that are not given here.

Columns and labels:
Bak gene = assay: rtPCR gene expression in Sk-Mel-28 cells; format: cell-based, human
Excerpt: (§1) We applied rtPCR techniques in order to investigate the effect of our two compounds on the anti-apoptotic Bcl-XL and Bcl-2 genes as well as the proapoptotic Bak and Bad genes (Table 4). […] Therefore, we may presume that the apoptotic mechanism of both compounds against the A375 cells is not mediated by the tested genes or that alterations in their ratio are the underlying mechanism.

Bcl-XL gene = assay: rtPCR gene expression in Sk-Mel-28 cells; format: cell-based, human
Excerpt: as §1

[1] = tested on: NCI-60 cancer cell line panel; assay: NCI-60 cancer cell line panel screening (whole panel / subpanels); format: cell-based; conditions: for Selectivity index (SI): full panel MG_MID / subpanel MG_MID
Description: At first, compounds were tested in a single high dose concentration regimen (10 µM) against a panel of sixty various cancer cell lines; the results of the screening are outlined in Table 1 in the form of percent growth (GP %) of treated cells versus untreated cells used as control, where negative numbers indicate cell kill. The experimental results of growth inhibition may range from 0 to 100 and indicate a cytostatic effect while negative values indicate cell death and thus a cytotoxic activity (for NCI data see Supplementary Material Figures S6–S12).
The selectivity index (SI) was calculated by dividing the full panel MG_MID60 (μM) of tested compounds by their individual subpanel MG_MID of the cell line (μM); it correlates directly to the selectivity of their anticancer activity (Table 3). […] By contrast, despite its strong antiproliferative effect, compound 7 acts with low selectivity against the various human tumor cell lines, the highest SI value being 1.73.
Compounds 1, 2, and 4–8 were tested at one dose assay (10^−5 M) toward a panel of approximately sixty cancer cell lines representing different cancer types: leukemia, melanoma, lung, colon, CNS, ovarian, renal, prostate, and breast cancers. Primary anticancer assays were performed according to the NCI protocol as described elsewhere (see, e.g., http://dtp.nci.nih.gov accessed on 16 October 2019). The compounds were added at a single concentration and the cell cultures were incubated for 48 h. The end point determinations were made with a protein binding dye, sulforhodamine B (SRB). The results for each compound are reported as the percent growth (GP %) of treated cells compared to untreated control cells (negative numbers indicate cell kill). Compounds with considerable activity against all tested human tumor cell lines (6 and 7) were selected for the advanced assay against a panel of approximately sixty tumor cell lines at 10-fold dilutions of five concentrations (100 µM, 10 µM, 1 µM, 0.1 µM, and 0.01 µM). The percentage of growth was evaluated spectrophotometrically versus controls not treated with test agents after 48-h exposure and using SRB protein assay to estimate cell viability or growth. Three antitumor activity dose–response parameters were calculated for each cell line: GI50—molar concentration of the compound that inhibits 50% net cell growth; TGI—molar concentration of the compound leading to the total inhibition; and LC50—molar concentration of the compound leading to 50% net cell death (presented in negative logarithm). Furthermore, mean graph midpoints (MG_MID) were calculated for each of the parameters, giving an average activity parameter over all cell lines for the tested compound. For the MG_MID calculation, insensitive cell lines were included with the highest concentration tested.

KM-12 = assay: NCI-60 SRB screening (one-dose and five-dose); format: cell-based, human; conditions: 48 h; for GI50: Homo sapiens, KM12, KM-12, five dose 0.01–100 μM
How it was run: (§2)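 Spectrophotometric SRB end point; 48-h drug exposure; percent of untreated-control growth reported.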

SNB-75 = assay: NCI-60 SRB screening (one-dose and five-dose); format: cell-based, human; conditions: 48 h; for GI50: Homo sapiens, SNB-75, five dose 0.01–100 μM
How it was run: (§3)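 Growth inhibition is scored with sulforhodamine B after 48 h of continuous compound exposure. An MG_MID averages each parameter over the whole cell panel, insensitive lines being counted at the top tested concentration.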

EKVX = assay: NCI-60 SRB screening (one-dose and five-dose); format: cell-based, human; conditions: 48 h; for GI50: Homo sapiens, five dose 0.01–100 μM
How it was run: as §2

MCF7 = assay: NCI-60 SRB screening (one-dose and five-dose); format: cell-based, human; conditions: 48 h; for GI50: Homo sapiens, MCF7, five dose 0.01–100 μM
How it was run: as §2

RPMI-8226 = assay: NCI-60 SRB screening (one-dose and five-dose); format: cell-based, human; conditions: 48 h; for GI50: Homo sapiens, RPMI-8226, five dose 0.01–100 μM
How it was run: as §2

PC-3 = assay: NCI-60 SRB screening (one-dose and five-dose); format: cell-based, human; conditions: 48 h; for GI50: Homo sapiens, PC-3, five dose 0.01–100 μM
How it was run: as §2

NCI/ADR-RES = assay: NCI-60 SRB screening (one-dose and five-dose); format: cell-based, human; conditions: 48 h; for GI50: Homo sapiens, five dose 0.01–100 μM
How it was run: as §2

NCI-H226 = assay: NCI-60 SRB screening (one-dose and five-dose); format: cell-based, human; conditions: 48 h; for GI50: Homo sapiens, NCI-H226, five dose 0.01–100 μM
How it was run: as §2

NCI-H23 = assay: NCI-60 SRB screening (one-dose and five-dose); format: cell-based, human; conditions: 48 h; for GI50: Homo sapiens, NCI-H23, five dose 0.01–100 μM
How it was run: as §3

COLO 205 = assay: NCI-60 SRB screening (one-dose and five-dose); format: cell-based, human; conditions: 48 h; for GI50: Homo sapiens, COLO 205, five dose 0.01–100 μM
How it was run: as §2

SF-268 = assay: NCI-60 SRB screening (one-dose and five-dose); format: cell-based, human; conditions: 48 h; for GI50: Homo sapiens, SF-268, five dose 0.01–100 μM
How it was run: (§4)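 Test agents were applied at one concentration; 48 h later, sulforhodamine B staining quantified growth as a percentage of controls receiving no agent.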

SK-MEL-28 = assay: NCI-60 SRB screening (one-dose and five-dose); format: cell-based, human; conditions: 48 h; for GI50: Homo sapiens, SK-MEL-28, five dose 0.01–100 μM
How it was run: as §3

HL-60(TB) = assay: NCI-60 SRB screening (one-dose and five-dose); format: cell-based, human; conditions: 48 h; for GI50: Homo sapiens, five dose 0.01–100 μM
How it was run: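 Cells received compound at one concentration for 48 h. Growth was read by sulforhodamine B protein staining, as percentage versus untreated controls. Mean graph midpoints averaged each parameter over all cell lines, with insensitive lines entered at the highest tested concentration.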

UACC-62 = assay: NCI-60 SRB screening (one-dose and five-dose); format: cell-based, human; conditions: 48 h; for GI50: Homo sapiens, UACC-62, five dose 0.01–100 μM
How it was run: as §2

NCI-H460 = assay: NCI-60 SRB screening (one-dose and five-dose); format: cell-based, human; conditions: 48 h; for GI50: Homo sapiens, NCI-H460, five dose 0.01–100 μM
How it was run: as §2

A498 = assay: NCI-60 SRB screening (one-dose and five-dose); format: cell-based, human; conditions: 48 h; for GI50: Homo sapiens, A498, five dose 0.01–100 μM
How it was run: as §4

K-562 = assay: NCI-60 SRB screening (one-dose and five-dose); format: cell-based, human; conditions: 48 h; for GI50: Homo sapiens, K562, K-562, five dose 0.01–100 μM
How it was run: as §4

M14 = assay: NCI-60 SRB screening (one-dose and five-dose); format: cell-based, human; conditions: 48 h; for GI50: Homo sapiens, M14, five dose 0.01–100 μM
How it was run: as §4

OVCAR-4 = assay: NCI-60 SRB screening (one-dose and five-dose); format: cell-based, human; conditions: 48 h; for GI50: Homo sapiens, OVCAR-4, five dose 0.01–100 μM
How it was run: as §3

BT-549 = assay: NCI-60 SRB screening (one-dose and five-dose); format: cell-based, human; conditions: 48 h; for GI50: Homo sapiens, BT-549, five dose 0.01–100 μM
How it was run: as §4

Bcl-2 gene = assay: rtPCR gene expression in Sk-Mel-28 cells; format: cell-based, human

## C[C@H]1[C@@H]2[C@H]3CC[C@@H]4[C@@]5(C)C/C(=C\c6cccnc6)C(=O)C(C)(C)[C@@H]5CC[C@@]4(C)[C@]3(C)CC[C@]23CO[C@@]1(C)[C@@H](C(=O)/C=C/c1cccnc1)C3 [Compound 6, 3-Oxo-2-(3-pyridinylidene)-21-[3-(2E-pyridinyl)-prop-2-en-1-one]-20β,28-epoxy-18α,19βH-ursane]
Bak gene
  Bak gene expression, Mean: 22.826 ***
Bcl-XL gene
  Bcl-XL gene expression, Mean: 1.606
[1]; Breast Cancer subpanel
  Selectivity index (SI): 0.96
[1]; CNS Cancer subpanel
  Selectivity index (SI): 0.96
[1]; Colon Cancer subpanel
  Selectivity index (SI): 1.10
[1]; Homo sapiens, five-dose testing, all cell lines, read-out: GI50 values, range over the NCI-60 panel
  GI50: 30 to 5900 nM
[1]; Leukemia subpanel
  Selectivity index (SI): 5.30
[1]; Melanoma subpanel
  Selectivity index (SI): 1.01
[1]; Non-Small Cell Lung Cancer subpanel
  Selectivity index (SI): 0.87
[1]; Ovarian Cancer subpanel
  Selectivity index (SI): 0.57
[1]; Prostate Cancer subpanel
  Selectivity index (SI): 1.86
[1]; Renal Cancer subpanel
  Selectivity index (SI): 1.01
KM-12
  GI50: 910 nM
KM-12; KM-12, 10 μM
  Growth Percent: −55.61%
SNB-75
  GI50: 1020 nM
SNB-75; SNB-75, 10 μM
  Growth Percent: 32.69%
EKVX; 10 μM
  Growth Percent: −1.58%
EKVX
  GI50: 1720 nM
MCF7
  GI50: 910 nM
MCF7; MCF7, 10 μM
  Growth Percent: 9.88%
RPMI-8226
  GI50: 160 nM
RPMI-8226; RPMI-8226, 10 μM
  Growth Percent: 5.06%
PC-3
  GI50: 260 nM
PC-3; PC-3, 10 μM
  Growth Percent: −3.56%
NCI/ADR-RES; 10 μM
  Growth Percent: 2.97%
NCI/ADR-RES
  GI50: 1700 nM
NCI-H226
  GI50: 1020 nM
NCI-H226; NCI-H226, 10 μM
  Growth Percent: −13.51%
NCI-H23
  GI50: 1040 nM
NCI-H23; NCI-H23, 10 μM
  Growth Percent: −48.71%
COLO 205; COLO 205, 10 μM
  Growth Percent: −56.84%
COLO 205
  GI50: 1430 nM
SF-268
  GI50: 1310 nM
SF-268; SF-268, 10 μM
  Growth Percent: 7.10%
SK-MEL-28
  GI50: 940 nM
SK-MEL-28; SK-MEL-28, 10 μM
  Growth Percent: −17.77%
HL-60(TB); 10 μM
  Growth Percent: 14.49%
HL-60(TB)
  GI50: 560 nM
UACC-62
  GI50: 600 nM
UACC-62; UACC-62, 10 μM
  Growth Percent: −25.57%
NCI-H460
  GI50: 890 nM
NCI-H460; NCI-H460, 10 μM
  Growth Percent: −45.33%
A498; A498, 10 μM
  Growth Percent: −59.07%
A498
  GI50: 780 nM
K-562
  GI50: 30 nM
K-562; K-562, 10 μM
  Growth Percent: 6.51%
M14
  GI50: 1740 nM
M14; M14, 10 μM
  Growth Percent: −20.11%
OVCAR-4
  GI50: 1490 nM
OVCAR-4; OVCAR-4, 10 μM
  Growth Percent: 18.62%
BT-549; BT-549, 10 μM
  Growth Percent: −20.09%
BT-549
  GI50: 730 nM
Bcl-2 gene
  Bcl-2 gene expression, Mean: 0.200 *

## COc1cccc2c1C(=O)c1c(O)c3c(c(O)c1C2=O)C[C@@](O)(C(=O)CO)C[C@@H]3O[C@H]1C[C@H](N)[C@H](O)[C@H](C)O1 [Doxorubicin, reference compound]
KM-12
  GI50: 270 nM
SNB-75
  GI50: 70 nM
EKVX
  GI50: 410 nM
MCF7
  GI50: 30 nM
RPMI-8226
  GI50: 80 nM
PC-3
  GI50: 320 nM
NCI/ADR-RES
  GI50: 7160 nM
NCI-H226
  GI50: 50 nM
NCI-H23
  GI50: 150 nM
COLO 205
  GI50: 180 nM
SF-268
  GI50: 100 nM
SK-MEL-28
  GI50: 210 nM
HL-60(TB)
  GI50: 120 nM
UACC-62
  GI50: 120 nM
NCI-H460
  GI50: 20 nM
A498
  GI50: 100 nM
K-562
  GI50: 190 nM
M14
  GI50: 180 nM
OVCAR-4
  GI50: 370 nM
BT-549
  GI50: 230 nM
